Source: paper PMC10708125, “Antidiabetic Activity, Molecular Docking, and ADMET Properties of Compounds Isolated from Bioactive Ethyl Acetate Fraction of Ficus lutea Leaf Extract” (Molecules, 2023)
Read-outs that look alike come from different tables or passages of the source.

Tests used:
C2C12 muscle cells = assay: Glucose utilization in C2C12 muscle cells; type: cell-based; conditions: 250 µg/mL, 1 h, percentage of untreated control cells ± SEM
Experimental: (§1) The potential of compounds to stimulate cells to utilize glucose was estimated using the method adopted by Olaokun et al.. […] The C2C12 cells were incubated for 4 days, while the H-4-11-E cells were incubated for 2 days at 37 °C in a 5% CO2 incubator. Thereafter, the cells were examined and utilized for the glucose uptake assay. […] The treated cells were incubated for 1 h (C2C12) and 3 h (H-4-11-E). The positive control was insulin (Sigma) (1 μM) for C2C12 cells and metformin (Sigma) (1 µM) for H-4-11-E cells. Thereafter, the amount of glucose in the medium was evaluated using the glucose oxidase method, with absorbance recorded at 540 nm. The percentage of glucose utilized was calculated as the percentage change in absorbance in comparison to the untreated cells using Equation (2). (2) %Glucose utilized=100×∆AControl (untreated cells)−∆ASample (treated cells)/∆AControl (untreated cells)

H-4-11-E rat liver cells = assay: Glucose utilization in H-4-11-E liver cells; type: cell-based; conditions: 250 µg/mL, 3 h, percentage of untreated control cells ± SEM
Experimental: as §1

[1] = biological target: T1, rat intestinal α-glucosidase (Rattus norvegicus, UniProt P23739); assay: α-Glucosidase inhibition assay; type: biochemical
T1 construct: rat intestinal α-glucosidase solution; from tissue; host or cells: rat intestine
Experimental: The effect of the isolated compounds on the activity of the α-glucosidase enzyme was evaluated by the method of Olaokun et al.. Firstly, a solution of 2.5 mg of compound in 1 mL of 50% dimethyl sulfoxide was made. A compound solution (100 μL) and sucrose (200 μL of a 56 mM solution) in 0.1 M PO4 buffer (pH 7) were incubated at 37 °C for 5 min. Then 200 μL of rat intestinal α-glucosidase solution was added with vigorous shaking before incubation for 20 min. Thereafter, 750 μL of 2 M Tris-HCl buffer (pH 6.9) was added to the mixture. […] The quantity of glucose released was estimated using the glucose oxidase method, with absorbance recorded at 540 nm. […] (1) %Inhibition=100×∆AControl−∆ASample/∆AControl∆AControl=ATest−ABlank∆ASample=ATest−ABlank

[2] = rat intestinal α-glucosidase, sucrose substrate, mean ± SEM, read-out: IC50, α-glucosidase inhibitory activity (converted)

T1 sequence (P23739 whole entry): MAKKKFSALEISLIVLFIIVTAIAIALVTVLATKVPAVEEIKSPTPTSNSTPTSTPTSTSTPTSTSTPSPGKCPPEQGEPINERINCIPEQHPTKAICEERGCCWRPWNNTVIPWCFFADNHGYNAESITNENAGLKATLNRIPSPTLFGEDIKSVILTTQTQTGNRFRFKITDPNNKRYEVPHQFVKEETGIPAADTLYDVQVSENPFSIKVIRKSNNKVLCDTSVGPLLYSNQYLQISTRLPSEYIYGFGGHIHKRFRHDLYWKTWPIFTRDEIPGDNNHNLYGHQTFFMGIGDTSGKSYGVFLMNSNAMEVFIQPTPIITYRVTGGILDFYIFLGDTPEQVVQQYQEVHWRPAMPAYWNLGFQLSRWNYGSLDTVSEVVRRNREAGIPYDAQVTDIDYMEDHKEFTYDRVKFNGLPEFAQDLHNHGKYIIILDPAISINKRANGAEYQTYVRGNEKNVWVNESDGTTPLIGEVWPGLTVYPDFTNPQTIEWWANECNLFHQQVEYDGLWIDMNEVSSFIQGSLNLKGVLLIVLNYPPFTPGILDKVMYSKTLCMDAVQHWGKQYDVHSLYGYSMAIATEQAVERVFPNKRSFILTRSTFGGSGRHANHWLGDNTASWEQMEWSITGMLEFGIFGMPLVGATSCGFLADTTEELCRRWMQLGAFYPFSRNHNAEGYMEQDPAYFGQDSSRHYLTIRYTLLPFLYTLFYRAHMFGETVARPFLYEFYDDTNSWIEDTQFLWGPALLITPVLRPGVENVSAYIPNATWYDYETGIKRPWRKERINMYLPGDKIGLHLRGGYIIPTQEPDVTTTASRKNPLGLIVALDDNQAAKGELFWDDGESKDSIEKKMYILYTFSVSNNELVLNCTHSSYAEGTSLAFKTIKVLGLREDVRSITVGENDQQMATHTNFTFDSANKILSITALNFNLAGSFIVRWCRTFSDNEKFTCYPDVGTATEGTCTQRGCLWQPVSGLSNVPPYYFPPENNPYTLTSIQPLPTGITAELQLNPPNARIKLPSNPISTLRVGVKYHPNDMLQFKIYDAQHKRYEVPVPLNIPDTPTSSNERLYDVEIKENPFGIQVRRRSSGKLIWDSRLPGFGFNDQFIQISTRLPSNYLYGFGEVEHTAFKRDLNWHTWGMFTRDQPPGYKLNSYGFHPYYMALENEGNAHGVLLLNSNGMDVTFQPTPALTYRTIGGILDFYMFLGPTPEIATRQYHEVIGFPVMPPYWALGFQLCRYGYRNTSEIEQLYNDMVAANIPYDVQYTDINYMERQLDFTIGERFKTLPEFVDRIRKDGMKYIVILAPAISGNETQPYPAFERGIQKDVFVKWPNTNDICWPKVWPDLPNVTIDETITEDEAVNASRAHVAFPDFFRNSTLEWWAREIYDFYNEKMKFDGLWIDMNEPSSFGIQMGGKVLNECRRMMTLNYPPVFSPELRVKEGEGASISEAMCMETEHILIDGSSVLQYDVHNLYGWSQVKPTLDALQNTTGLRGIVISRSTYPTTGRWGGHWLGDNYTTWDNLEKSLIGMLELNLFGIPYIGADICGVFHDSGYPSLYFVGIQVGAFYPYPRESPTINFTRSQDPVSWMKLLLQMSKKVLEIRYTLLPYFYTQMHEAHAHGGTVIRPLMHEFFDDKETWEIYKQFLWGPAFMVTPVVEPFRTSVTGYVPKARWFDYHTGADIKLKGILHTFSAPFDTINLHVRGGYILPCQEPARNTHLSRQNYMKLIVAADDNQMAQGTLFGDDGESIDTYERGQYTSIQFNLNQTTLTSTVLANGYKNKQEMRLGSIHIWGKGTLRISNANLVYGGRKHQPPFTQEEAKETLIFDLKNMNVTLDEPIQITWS

Row | Structure (SMILES) | Glucose utilization in C2C12 muscle cells (C2C12 muscle cells) [%] | Glucose utilization in H-4-11-E liver cells (H-4-11-E rat liver cells) [%] | IC50 [1, 2] [µM] | IC50 [1] [µM]
1 | Oc1ccc(C2Oc3cc(O)cc(O)c3CC2O)cc1 (centres unmarked) [Epiafzelechin, epiafzelechin] | 33.35 ± 1.8 | 46.7 ± 1.2 | 27.9 | 
2 | Oc1cc(O)c2c(c1)O[C@H](c1ccc(O)c(O)c1)[C@H](O)C2 [Epicatechin, epicatechin] |  | 32.4 ± 1.5 | 19.7 | 
3 | C=C(C)[C@@H]1CC[C@]2(C)CC[C@]3(C)[C@H](CC[C@@H]4[C@@]5(C)CC[C@H](O)C(C)(C)[C@@H]5CC[C@]43C)[C@@H]12 [Lupeol, lupeol] |  |  |  | > 2340
4 | CC[C@H](/C=C/[C@@H](C)[C@H]1CC[C@H]2[C@@H]3CC=C4C[C@@H](O)CC[C@]4(C)[C@H]3CC[C@]12C)C(C)C [Stigmasterol, stigmasterol] |  |  | 280 | 
5 | CC(=O)OC1CCC2(C)C(CCC3(C)C2CC=C2C4C(C)C(C)CCC4(C)CCC23C)C1(C)C (stereo not drawn) [α-Amyrin acetate, α-amyrin acetate] |  |  | 716 | 
